{
  "source": "ChEMBL document CHEMBL4393686",
  "about": "“InCl3 mediated heteroarylation of indoles and their derivatization via CH activation strategy: Discovery of 2-(1H-indol-3-yl)-quinoxaline derivatives as a new class of PDE4B selective inhibitors for arthritis and/or multiple sclerosis” (Eur J Med Chem, 2019)",
  "key": {"[1]": {"molecular_target": "cGMP-inhibited 3',5'-cyclic phosphodiesterase 3B (Homo sapiens) (UniProt Q13370)", "sequence (Q13370 whole entry, looked up)": "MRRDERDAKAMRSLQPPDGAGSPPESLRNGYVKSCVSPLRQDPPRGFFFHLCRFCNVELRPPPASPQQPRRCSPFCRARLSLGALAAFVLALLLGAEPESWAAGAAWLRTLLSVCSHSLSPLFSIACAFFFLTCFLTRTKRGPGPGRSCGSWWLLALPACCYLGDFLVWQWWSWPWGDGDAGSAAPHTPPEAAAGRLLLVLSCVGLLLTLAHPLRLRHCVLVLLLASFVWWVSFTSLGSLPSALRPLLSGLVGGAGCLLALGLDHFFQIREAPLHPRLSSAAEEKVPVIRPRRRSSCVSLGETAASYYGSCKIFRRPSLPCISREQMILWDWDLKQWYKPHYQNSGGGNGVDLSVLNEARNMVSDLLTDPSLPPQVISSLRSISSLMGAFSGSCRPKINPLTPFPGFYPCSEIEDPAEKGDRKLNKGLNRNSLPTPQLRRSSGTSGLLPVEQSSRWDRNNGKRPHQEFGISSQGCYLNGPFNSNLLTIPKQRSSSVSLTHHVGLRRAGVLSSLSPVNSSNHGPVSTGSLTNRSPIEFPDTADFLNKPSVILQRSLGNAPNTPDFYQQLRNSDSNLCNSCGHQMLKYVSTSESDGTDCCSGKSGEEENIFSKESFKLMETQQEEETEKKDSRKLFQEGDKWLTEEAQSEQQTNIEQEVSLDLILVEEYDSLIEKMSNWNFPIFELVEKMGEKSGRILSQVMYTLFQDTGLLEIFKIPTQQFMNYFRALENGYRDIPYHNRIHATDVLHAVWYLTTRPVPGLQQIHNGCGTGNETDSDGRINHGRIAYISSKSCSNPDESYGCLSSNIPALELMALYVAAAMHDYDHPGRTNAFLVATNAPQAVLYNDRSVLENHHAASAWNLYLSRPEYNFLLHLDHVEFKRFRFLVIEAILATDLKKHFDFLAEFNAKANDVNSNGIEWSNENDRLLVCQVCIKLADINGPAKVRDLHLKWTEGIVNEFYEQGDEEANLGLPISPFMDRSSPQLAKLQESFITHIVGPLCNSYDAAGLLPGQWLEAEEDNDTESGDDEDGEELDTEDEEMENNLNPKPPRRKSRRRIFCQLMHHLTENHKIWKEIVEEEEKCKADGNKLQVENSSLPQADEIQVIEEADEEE", "assay": "Inhibition of recombinant N-terminal GST-tagged human PDE3B (592-end aa) expressed in Sf9 cells using FAM-cAMP as substrate at 10 uM incubated for 60 mins by fluorescence plate reader analysis"}, "[2]": {"molecular_target": "Dual specificity calcium/calmodulin-dependent 3',5'-cyclic nucleotide phosphodiesterase 1C (Homo sapiens) (UniProt Q14123)", "assay": "Inhibition of recombinant N-terminal GST tagged human PDE1C (2 to 634 aa) expressed in Sf9 cells at 10 uM using FAM-cAMP as substrate incubated for 60 mins by fluorescence plate reader analysis"}, "[3]": {"species_on_record": "Homo sapiens", "assay": "Selectivity for recombinant His-tagged human PDE4B over PDE4C (unknown origin)"}, "[4]": {"system": "Danio rerio", "assay": "Anti-sclerotic activity in MOG/CFA-induced zebra fish EAE model assessed as reduction in lesion score at 3 to 30 mg/kg, ip measured for 7 days", "assay_type": "functional, organism-based"}, "[5]": {"assay": "Toxicity in zebrafish embryo assessed as effect in tail formation at 1 to 100 uM", "parameters": "species or system Danio rerio", "conditions": "in vivo"}, "[6]": {"assay": "AUC (0 to infinity) in BALB/c mouse at 10 mg/kg, iv measured for 24 hrs post dose by LC-MS/MS analysis", "assay_type": "ADME, organism-based", "parameters": "dose 10 mg/kg, time infinity, route intravenous", "conditions": "in vivo"}, "[7]": {"assay": "Initial plasma concentration in BALB/c mouse at 10 mg/kg, iv measured for 24 hrs post dose by LC-MS/MS analysis", "assay_type": "ADME, organism-based"}, "[8]": {"molecular_target": "T1, 3',5'-cyclic-AMP phosphodiesterase 4B (Homo sapiens, UniProt Q07343)", "T1 sequence (Q07343 whole entry)": "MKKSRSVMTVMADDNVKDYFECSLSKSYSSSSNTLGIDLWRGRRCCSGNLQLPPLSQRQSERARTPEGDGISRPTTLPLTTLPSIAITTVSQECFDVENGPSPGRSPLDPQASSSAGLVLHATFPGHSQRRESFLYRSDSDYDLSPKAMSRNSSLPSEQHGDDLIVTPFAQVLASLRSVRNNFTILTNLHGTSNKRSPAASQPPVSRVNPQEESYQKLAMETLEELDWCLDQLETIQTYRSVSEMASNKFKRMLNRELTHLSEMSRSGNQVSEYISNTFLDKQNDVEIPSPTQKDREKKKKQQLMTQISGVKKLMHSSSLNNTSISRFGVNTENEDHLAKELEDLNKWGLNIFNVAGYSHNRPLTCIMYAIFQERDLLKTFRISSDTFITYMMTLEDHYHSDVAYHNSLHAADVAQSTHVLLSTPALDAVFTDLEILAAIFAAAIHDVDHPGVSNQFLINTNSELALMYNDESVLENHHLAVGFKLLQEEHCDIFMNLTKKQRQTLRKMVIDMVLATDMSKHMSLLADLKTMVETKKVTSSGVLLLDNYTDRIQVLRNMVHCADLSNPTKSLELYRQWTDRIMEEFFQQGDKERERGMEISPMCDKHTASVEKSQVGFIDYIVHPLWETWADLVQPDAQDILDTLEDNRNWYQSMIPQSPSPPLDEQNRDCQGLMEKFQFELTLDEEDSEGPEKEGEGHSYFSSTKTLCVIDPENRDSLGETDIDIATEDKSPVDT", "assay": "Inhibition of recombinant His-tagged human PDE4B expressed in Sf9 cells using cAMP as substrate preincubated with enzyme for 15 mins followed by substrate addition and incubated for 1 hr by PDELight HTS cAMP phosphodiesterase Kit based luminometry"}, "[9]": {"assay": "Toxicity in zebrafish embryo assessed as effect in somite formation at 1 to 100 uM", "parameters": "species or system Danio rerio", "conditions": "in vivo"}, "[10]": {"molecular_target": "3',5'-cyclic-AMP phosphodiesterase 4A (Homo sapiens) (UniProt P27815)", "assay": "Inhibition of recombinant N-terminal GST tagged human PDE4A4B (2-end aa) expressed in Sf9 cells using FAM-cAMP as substrate at 10 uM incubated for 60 mins by fluorescence plate reader analysis"}, "[11]": {"molecular_target": "Dual specificity calcium/calmodulin-dependent 3',5'-cyclic nucleotide phosphodiesterase 1A (Homo sapiens) (UniProt P54750)", "assay": "Inhibition of recombinant N-terminal GST-tagged full-length human PDE1A1 expressed in Sf9 cells using FAM-cAMP as substrate at 10 uM incubated for 60 mins by fluorescence plate reader analysis"}, "[12]": {"molecular_target": "Dual 3',5'-cyclic-AMP and -GMP phosphodiesterase 11A (Homo sapiens) (UniProt Q9HCR9)", "sequence (Q9HCR9 whole entry, looked up)": "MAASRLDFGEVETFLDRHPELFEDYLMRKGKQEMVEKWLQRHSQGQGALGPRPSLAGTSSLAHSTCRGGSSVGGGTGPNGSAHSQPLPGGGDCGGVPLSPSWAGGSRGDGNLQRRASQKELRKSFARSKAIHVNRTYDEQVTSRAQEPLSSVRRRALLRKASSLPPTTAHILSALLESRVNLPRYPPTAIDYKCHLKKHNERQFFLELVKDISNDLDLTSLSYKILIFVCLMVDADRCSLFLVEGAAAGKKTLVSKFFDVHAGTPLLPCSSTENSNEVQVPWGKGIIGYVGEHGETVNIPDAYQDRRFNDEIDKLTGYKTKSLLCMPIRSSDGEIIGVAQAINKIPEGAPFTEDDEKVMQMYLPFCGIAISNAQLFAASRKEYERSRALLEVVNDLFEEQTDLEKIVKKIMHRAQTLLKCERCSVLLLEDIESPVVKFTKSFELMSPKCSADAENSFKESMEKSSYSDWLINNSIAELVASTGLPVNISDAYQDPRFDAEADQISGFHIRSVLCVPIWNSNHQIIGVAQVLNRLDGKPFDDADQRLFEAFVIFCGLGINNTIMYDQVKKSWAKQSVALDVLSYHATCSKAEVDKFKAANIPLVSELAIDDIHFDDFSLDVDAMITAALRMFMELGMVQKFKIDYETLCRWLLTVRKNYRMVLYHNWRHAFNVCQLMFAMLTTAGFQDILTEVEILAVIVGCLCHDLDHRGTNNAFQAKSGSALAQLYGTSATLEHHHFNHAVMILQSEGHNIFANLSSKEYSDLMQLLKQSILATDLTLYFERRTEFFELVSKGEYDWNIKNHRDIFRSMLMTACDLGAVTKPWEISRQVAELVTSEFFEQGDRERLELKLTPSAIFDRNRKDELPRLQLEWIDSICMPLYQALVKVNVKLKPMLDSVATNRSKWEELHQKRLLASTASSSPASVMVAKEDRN", "assay": "Inhibition of recombinant N-terminal GST-tagged full length human PDE11A4 expressed in Sf9 cells using FAM-cAMP as substrate at 10 uM incubated for 60 mins by fluorescence plate reader analysis"}, "[13]": {"assay": "Half life in rat liver microsomes at 5 uM by LC-MS/MS analysis", "assay_type": "ADME, Microsome"}, "[14]": {"assay": "Toxicity in zebrafish embryo assessed as effect in upper jaw formation at 1 to 100 uM", "parameters": "species or system Danio rerio", "conditions": "in vivo"}, "[15]": {"molecular_target": "cAMP and cAMP-inhibited cGMP 3',5'-cyclic phosphodiesterase 10A (Homo sapiens) (UniProt Q9Y233)", "sequence (Q9Y233 whole entry, the tested form may be a part)": "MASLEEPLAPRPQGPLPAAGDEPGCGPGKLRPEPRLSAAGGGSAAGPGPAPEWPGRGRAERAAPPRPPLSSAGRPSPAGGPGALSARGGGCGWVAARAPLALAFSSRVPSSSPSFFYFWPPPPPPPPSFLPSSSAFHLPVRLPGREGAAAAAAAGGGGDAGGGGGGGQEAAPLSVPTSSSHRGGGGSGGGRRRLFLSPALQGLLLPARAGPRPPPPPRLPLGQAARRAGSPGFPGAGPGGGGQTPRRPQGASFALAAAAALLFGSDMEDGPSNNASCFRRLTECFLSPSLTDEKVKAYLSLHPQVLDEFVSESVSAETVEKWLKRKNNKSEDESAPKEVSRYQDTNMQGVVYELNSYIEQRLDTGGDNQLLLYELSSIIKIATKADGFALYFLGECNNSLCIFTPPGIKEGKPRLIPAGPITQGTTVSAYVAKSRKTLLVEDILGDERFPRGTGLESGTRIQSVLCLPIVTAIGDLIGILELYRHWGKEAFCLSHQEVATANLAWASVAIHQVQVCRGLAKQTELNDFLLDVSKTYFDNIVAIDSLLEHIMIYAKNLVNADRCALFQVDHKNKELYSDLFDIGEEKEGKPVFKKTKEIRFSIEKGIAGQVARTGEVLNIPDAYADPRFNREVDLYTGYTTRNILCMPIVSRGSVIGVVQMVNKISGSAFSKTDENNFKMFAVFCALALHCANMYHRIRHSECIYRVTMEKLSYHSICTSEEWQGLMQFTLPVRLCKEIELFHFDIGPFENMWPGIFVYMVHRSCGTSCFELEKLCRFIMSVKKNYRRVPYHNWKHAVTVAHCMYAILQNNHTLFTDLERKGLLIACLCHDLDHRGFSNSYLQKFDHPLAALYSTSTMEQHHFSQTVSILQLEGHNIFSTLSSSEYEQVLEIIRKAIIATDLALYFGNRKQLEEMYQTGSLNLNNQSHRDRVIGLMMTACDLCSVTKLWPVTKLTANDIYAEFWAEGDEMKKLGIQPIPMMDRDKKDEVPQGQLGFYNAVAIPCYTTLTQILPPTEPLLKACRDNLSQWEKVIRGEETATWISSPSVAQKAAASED", "assay": "Inhibition of recombinant -N-terminal GST-tagged human PDE10A1 (aa 2-789) expressed in Sf9 cells using FAM-cAMP as substrate at 10 uM incubated for 60 mins by fluorescence plate reader analysis"}, "[16]": {"assay": "Intrinsic clearance in rat liver microsomes at 5 uM by LC-MS/MS analysis", "assay_type": "ADME, Microsome", "conditions": "read-out: CLH"}, "[17]": {"assay": "Hepatotoxicity in zebrafish embryos assessed as yolk sac retention at 1 to 100 uM incubated for 7 dpf", "assay_type": "toxicity, Danio rerio", "conditions": "in vivo"}, "[18]": {"assay": "Toxicity in zebrafish embryo", "parameters": "species or system Danio rerio", "conditions": "in vivo"}, "[19]": {"assay": "Toxicity in zebrafish embryo assessed as effect in intestine formation at 1 to 100 uM", "assay_type": "tissue-based, Danio rerio", "conditions": "in vivo"}, "[20]": {"assay": "Toxicity in zebrafish embryo assessed as effect in swim bladder formation at 1 to 100 uM", "parameters": "species or system Danio rerio", "conditions": "in vivo"}, "[21]": {"assay": "Cardiotoxicity in zebrafish embryos assessed as artio-ventricular ratio at 1 to 100 uM", "assay_type": "toxicity, Danio rerio"}, "[22]": {"molecular_target": "Dual specificity calcium/calmodulin-dependent 3',5'-cyclic nucleotide phosphodiesterase 1B (Homo sapiens) (UniProt Q01064)", "assay": "Inhibition of recombinant N-terminal GST tagged full length human PDE1B expressed in Sf9 cells using FAM-cAMP as substrate at 10 uM incubated for 60 mins by fluorescence plate reader analysis"}, "[23]": {"molecular_target": "3',5'-cyclic-AMP phosphodiesterase 7B (Homo sapiens) (UniProt Q9NP56)", "assay": "Inhibition of recombinant N-terminal GST tagged and C-terminal His-tagged human PDE7B (109-ens aa) expressed in Sf9 cells using FAM-cAMP as substrate at 10 uM incubated for 60 mins by fluorescence plate reader analysis"}, "[24]": {"assay": "Toxicity in zebrafish embryo assessed as effect in heart formation at 1 to 100 uM", "assay_type": "tissue-based, Danio rerio", "conditions": "in vivo"}, "[25]": {"molecular_target": "High affinity cGMP-specific 3',5'-cyclic phosphodiesterase 9A (Homo sapiens) (UniProt O76083)", "sequence (O76083 whole entry)": "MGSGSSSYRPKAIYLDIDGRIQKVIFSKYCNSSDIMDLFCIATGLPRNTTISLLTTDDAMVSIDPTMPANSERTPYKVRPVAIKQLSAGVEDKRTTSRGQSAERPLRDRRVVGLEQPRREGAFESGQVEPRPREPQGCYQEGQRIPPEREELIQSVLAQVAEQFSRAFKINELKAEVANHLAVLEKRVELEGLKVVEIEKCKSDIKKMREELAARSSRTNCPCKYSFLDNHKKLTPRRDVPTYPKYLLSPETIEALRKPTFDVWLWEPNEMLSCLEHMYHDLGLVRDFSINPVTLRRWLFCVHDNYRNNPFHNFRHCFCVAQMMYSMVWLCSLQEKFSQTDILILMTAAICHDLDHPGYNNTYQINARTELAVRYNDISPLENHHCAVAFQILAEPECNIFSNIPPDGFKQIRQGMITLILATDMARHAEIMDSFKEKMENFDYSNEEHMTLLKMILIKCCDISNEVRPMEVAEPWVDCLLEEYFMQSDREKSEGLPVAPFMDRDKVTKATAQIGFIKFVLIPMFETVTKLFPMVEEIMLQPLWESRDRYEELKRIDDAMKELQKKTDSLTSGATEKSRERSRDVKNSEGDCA", "assay": "Inhibition of recombinant N-terminal GST-tagged full length human PDE9A2 expressed in Sf9 cells using F AM-cGMP as substrate at 10 uM incubated for 60 mins by fluorescence plate reader analysis"}, "[26]": {"system": "Rattus norvegicus", "assay": "Antiinflammatory activity in complete Freund's adjuvant-induced Wistar rat arthritis model assessed as reduction in TNFalpha mRNA expression at 30 mg/kg, ip administered from 11th day to 20th day by qPCR analysis", "assay_type": "functional, organism-based"}, "[27]": {"system": "Rattus norvegicus", "assay": "Antiinflammatory activity in complete Freund's adjuvant-induced Wistar rat arthritis model assessed as reduction in IL6 expression in serum at 30 mg/kg, ip administered from 11th day to 20th day by ELISA", "assay_type": "functional, organism-based"}, "[28]": {"assay": "Metabolic stability in rat liver microsomes assessed as compound remaining at 5 uM incubated for 30 mins in presence of air measured after 60 mins by LC-MS/MS analysis", "assay_type": "ADME, Microsome", "conditions": "read-out: Stability"}, "[29]": {"system": "Rattus norvegicus", "assay": "Antiarthritic activity in complete Freund's adjuvant-induced Wistar rat arthritis model assessed as reduction in paw volume at 30 mg/kg, ip administered from 11th day to 20th day by vernier caliper analysis", "assay_type": "functional, organism-based"}, "[30]": {"assay": "Volume of distribution at steady state in BALB/c mouse at 10 mg/kg, iv measured for 24 hrs post dose by LC-MS/MS analysis", "assay_type": "ADME, organism-based", "conditions": "in vivo, read-out: Vdss"}, "[31]": {"assay": "Cardiotoxicity in zebrafish embryos assessed as heart rate at 1 to 100 uM", "assay_type": "toxicity, Danio rerio"}, "[32]": {"molecular_target": "High affinity 3',5'-cyclic-AMP phosphodiesterase 7A (Homo sapiens) (UniProt Q13946)", "sequence (Q13946 whole entry)": "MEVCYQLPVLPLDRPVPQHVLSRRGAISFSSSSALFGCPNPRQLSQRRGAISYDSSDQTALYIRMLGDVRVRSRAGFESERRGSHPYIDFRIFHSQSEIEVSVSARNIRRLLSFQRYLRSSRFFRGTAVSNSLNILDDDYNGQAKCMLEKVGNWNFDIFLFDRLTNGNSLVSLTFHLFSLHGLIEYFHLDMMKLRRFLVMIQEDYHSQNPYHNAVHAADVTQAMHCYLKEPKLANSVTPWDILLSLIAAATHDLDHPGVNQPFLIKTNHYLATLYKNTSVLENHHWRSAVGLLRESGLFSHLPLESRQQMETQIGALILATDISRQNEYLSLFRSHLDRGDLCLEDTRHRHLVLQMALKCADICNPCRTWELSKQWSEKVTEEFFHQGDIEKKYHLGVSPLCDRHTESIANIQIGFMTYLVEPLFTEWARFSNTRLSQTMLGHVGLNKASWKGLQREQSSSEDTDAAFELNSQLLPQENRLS", "assay": "Inhibition of recombinant N-terminal GST tagged human PDE7A1 (122-end aa) expressed in Sf9 cells using FAM-cAMP as substrate at 10 uM incubated for 60 mins by fluorescence plate reader analysis"}, "[33]": {"assay": "Toxicity in zebrafish embryo assessed as effect in notochord formation at 1 to 100 uM", "parameters": "species or system Danio rerio", "conditions": "in vivo"}, "[34]": {"molecular_target": "T1, 3',5'-cyclic-AMP phosphodiesterase 4B", "assay": "Inhibition of human recombinant His-tagged PDE4B expressed in Sf9 cells using cAMP as substrate at 10 uM preincubated with enzyme for 15 mins followed by substrate addition and incubated for 1 hr by PDELight HTS cAMP phosphodiesterase Kit based luminometry relative to control"}},
  "note": "pIC50: −log10 of the molar value. Calls of active or inactive are those of the source. The calls are words filed in the database; no cut-off is given here.",
  "data": [
    {"smiles": "C=CCn1cc(-c2nc3ccccc3nc2Cl)c2cc(OC)ccc21", "values": [
      {"measurement": "inhibition", "setting": "[1]", "value": 1, "unit": "%"},
      {"measurement": "inhibition", "setting": "[2]", "value": 39, "unit": "%"},
      {"measurement": "Selectivity ratio", "setting": "[3]", "value": "> 250"},
      {"measurement": "inhibition", "setting": "[4]", "value": "inactive"},
      {"measurement": "Activity", "setting": "[5]", "value": "Non-Toxic"},
      {"measurement": "AUC(0-inf)", "setting": "[6]", "value": 1160, "unit": "ng·h/mL"},
      {"measurement": "C0 at 24 h", "setting": "[7]", "value": 5060, "unit": "ng/mL"},
      {"measurement": "pIC50", "setting": "[8]", "value": 6.41},
      {"measurement": "Activity", "setting": "[9]", "value": "Non-Toxic"},
      {"measurement": "inhibition", "setting": "[10]", "value": 36, "unit": "%"},
      {"measurement": "inhibition", "setting": "[11]", "value": 12, "unit": "%"},
      {"measurement": "inhibition", "setting": "[12]", "value": 7, "unit": "%"},
      {"measurement": "half-life at 5 µM", "setting": "[13]", "value": 52.5, "unit": "min"},
      {"measurement": "Activity", "setting": "[14]", "value": "Toxic"},
      {"measurement": "inhibition", "setting": "[15]", "value": 13, "unit": "%"},
      {"measurement": "microsomal CLint at 5 µM", "setting": "[16]", "value": 52.8, "unit": "µL/min/mg"},
      {"measurement": "Activity", "setting": "[17]", "value": "Non-Toxic"},
      {"measurement": "NOAEL", "setting": "[18]", "value": 30, "unit": "µM"},
      {"measurement": "Activity", "setting": "[19]", "value": "Non-Toxic"},
      {"measurement": "Activity", "setting": "[20]", "value": "Non-Toxic"},
      {"measurement": "Activity", "setting": "[21]", "value": "Non-Toxic"},
      {"measurement": "inhibition", "setting": "[22]", "value": 23, "unit": "%"},
      {"measurement": "inhibition", "setting": "[23]", "value": 2, "unit": "%"},
      {"measurement": "Activity", "setting": "[24]", "value": "Non-Toxic"},
      {"measurement": "inhibition", "setting": "[25]", "value": 9, "unit": "%"},
      {"measurement": "inhibition", "setting": "[26]", "value": "Active"},
      {"measurement": "inhibition", "setting": "[27]", "value": "Active"},
      {"measurement": "remaining at 60 min, 5 µM", "setting": "[28]", "value": 42.2, "unit": "%"},
      {"measurement": "inhibition", "setting": "[29]", "value": "Active"},
      {"measurement": "Vd", "setting": "[30]", "value": 4.46, "unit": "L/kg"},
      {"measurement": "Activity", "setting": "[31]", "value": "Non-Toxic"},
      {"measurement": "inhibition", "setting": "[32]", "value": 3, "unit": "%"},
      {"measurement": "Activity", "setting": "[33]", "value": "Toxic"},
      {"measurement": "inhibition", "setting": "[34]", "value": "> 75", "unit": "%"}
    ]}
  ]
}
